Measured values taken from article PMC11603075 (Communications Biology, 2024).

Experiments:
[1] = tested on: KDM4A; assay: MALDI–TOF MS screen of biotin-tagged H2a(1–20)R3X peptides with KDM4A; type: biochemical, human; settings: for RDM activity: initial screen, biotinylated peptides
Text: (§1) To investigate whether histone H2a is a JmjC-KDM substrate, we initially used mass spectrometry (MS) to screen a set of biotinylated N-terminal H2a(1–20) peptides with post-translational modifications (PTMs) at Arg-3, i.e. asymmetrically/symmetrically di-methylated Arg-3 (H2aR3me2a, H2aR3me2s, respectively), mono-methylated Arg-3 (H2aR3me1) and citrullinated Arg-3 (H2aR3Ci), against KDM4A, KDM4D, KDM4E and KDM5C. […] H2a(1–20)R3me2a, which appeared to be the most efficient RDM substrate in the screen, was then re-synthesised without a biotin tag and tested for RDM activity using the catalytic domains of all KDM4/KDM5 subfamily members.
(§2) MS-based screening assays with peptides and calf thymus histones were as reported; see Supplementary Table 6 for conditions. Time course assays were based on reported procedures. In brief, equal volumes of the enzyme and substrate solutions were combined to initiate the reaction; 10 µL of 2% (v/v) formic acid (HCOOH) in ddH2O or 100% methanol was added to 10 µL of the reaction mixture to quench reactions at different time points. Unless otherwise stated, time course assays were carried out in triplicate. In some cases, LC–MS was used instead of MALDI-TOF MS to avoid a MALDI matrix induced artefact with the hydroxylated product (Supplementary Fig. 16).
(§3) Supplementary Figure 1 Initial Screen of H2a fragments with KD M4 A, KDM4D, KDM4E, and KDM5C.
(§4) KDM4D, KDM4E, and KDM5C with H2a(1–20)R3X peptides from the AltaBioscience peptide library (Set 5) […]
(§5) (potentially), KDM4E, and KDM5C with H2a(1–20)R3me2a; KDM4E and KDM5C with H2a(1–20)R3me2s; and KDM5C wit h H2a(1–20 )R3 me1 . +1 6 Da mass shift s corr esponding t o hydr oxylat ion, were observed wit h […]
(§6) 20), and H2a(1–20)Ci3 (only with KDM4E).
(§7) H 2 a( 1–20)Ci3 and KDM5C with H2a(1–20 ) . […]
(§8) peptides except H2a(1–20)R3me2a. * Low-level peaks indicating ~10% demethylation. Experiments were repeated with the same results. For assay conditions see Supplementary Table 6 (n = 2, independent assays). Peptides were synthesised linked with C-terminal Nε-(D-biotin)-L- ly si ne -amide group (see
(§9) Supplementary Table 5 ) . […]
(§10) (1 picture or pasted object on this page, not shown here)
(§11) [ E nz ym e] [Peptide] [2OG] [Ascorbate] [(NH4)2F e(S O4)2] [TCEP] Buffer pH7.5 Enzyme Cognate substrate (mM) (mM) (mM) (mM) (mM) (mM) [HE PE S]
(§12) Supplementary Table 6 Summary of MS assay conditions for substrate screening. These conditions enabled efficient turnover of established substrates. Reactions were carried out at 37 °C unless otherwise st ated. […]

[2] = tested on: KDM4D; assay: MALDI–TOF MS screen of biotin-tagged H2a(1–20)R3X peptides with KDM4D; type: biochemical, human; settings: 60 min, n = 2
Text: as §1, §2, §3, §4, §5, §6, §7, §8, §9, §10, §11, §12

[3] = biological target: T1, KDM4E (Homo sapiens, UniProt B2RXH2); assay: MALDI–TOF MS screen of biotin-tagged H2a(1–20)R3X peptides with KDM4E; type: biochemical; settings: for +16 Da mass shift (hydroxylation) / −14 Da mass shift (demethylation): 60 min, KDM4E, MALDI–TOF MS, n = 2; for RDM activity: initial screen, biotinylated peptides
T1 construct: KDM4E1–337; made in house; host or cells: E. coli
T1 sequence (B2RXH2 1-337): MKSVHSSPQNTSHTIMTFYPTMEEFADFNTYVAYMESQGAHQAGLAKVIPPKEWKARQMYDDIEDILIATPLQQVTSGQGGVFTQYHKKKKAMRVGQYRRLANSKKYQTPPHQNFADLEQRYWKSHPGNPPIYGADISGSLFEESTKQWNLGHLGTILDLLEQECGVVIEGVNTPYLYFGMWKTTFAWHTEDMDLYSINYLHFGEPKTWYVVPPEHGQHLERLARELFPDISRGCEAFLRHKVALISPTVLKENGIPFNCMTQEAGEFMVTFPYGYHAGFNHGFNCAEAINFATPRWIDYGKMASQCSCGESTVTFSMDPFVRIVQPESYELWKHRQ
Text: as §1, §2, §3, §4, §5, §6, §7, §8, §9, §10, §11, §12

[4] = biological target: T2, KDM5C (Homo sapiens, UniProt P41229); assay: MALDI–TOF MS screen of biotin-tagged H2a(1–20)R3X peptides with KDM5C; type: biochemical; settings: for −14 Da mass shift (demethylation) / mass shift: 60 min, KDM5C, MALDI–TOF MS, n = 2; for RDM activity: initial screen, biotinylated peptides
T2 construct: KDM5C 1– 765; made in house; host or cells: Sf9 cells
T2 sequence (P41229 1-765): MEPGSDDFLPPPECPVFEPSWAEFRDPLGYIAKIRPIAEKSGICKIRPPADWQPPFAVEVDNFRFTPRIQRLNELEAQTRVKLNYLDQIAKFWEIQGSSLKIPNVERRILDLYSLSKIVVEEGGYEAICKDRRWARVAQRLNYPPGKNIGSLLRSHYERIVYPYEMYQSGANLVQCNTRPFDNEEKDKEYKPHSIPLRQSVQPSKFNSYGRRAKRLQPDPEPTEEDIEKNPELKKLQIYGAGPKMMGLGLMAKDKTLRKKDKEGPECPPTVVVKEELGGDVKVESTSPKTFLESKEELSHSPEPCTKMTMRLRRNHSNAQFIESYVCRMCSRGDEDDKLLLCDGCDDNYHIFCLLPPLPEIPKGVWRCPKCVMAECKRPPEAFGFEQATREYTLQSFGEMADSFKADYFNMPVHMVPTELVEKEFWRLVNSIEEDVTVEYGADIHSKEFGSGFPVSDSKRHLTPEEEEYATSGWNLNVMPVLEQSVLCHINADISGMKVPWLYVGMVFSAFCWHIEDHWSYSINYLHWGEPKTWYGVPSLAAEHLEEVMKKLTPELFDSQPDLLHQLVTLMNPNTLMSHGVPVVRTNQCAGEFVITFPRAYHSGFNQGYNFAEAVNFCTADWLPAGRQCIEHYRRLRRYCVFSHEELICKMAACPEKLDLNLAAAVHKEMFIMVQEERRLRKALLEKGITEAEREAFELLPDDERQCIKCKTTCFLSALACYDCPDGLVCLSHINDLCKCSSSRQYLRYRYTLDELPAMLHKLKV
Text: as §1, §2, §3, §4, §5, §6, §7, §8, §9, §10, §11, §12

[5] = biological target: T1, KDM4E; assay: Inhibition of KDM4E arginine hydroxylation (ROH), LC–MS; type: biochemical; settings: for inhibition of +16 Da product formation: KDM4E with H2a(1–20)
Experimental: µM (NH4)2Fe(SO4)2, and 50 mM HEPES (pH 7.5). (c,d) Inhibition of arginine hydroxylation (ROH) activity of KDM4E by small molecule 2OG oxygenase inhibitors. ( c ) ROH activity measurements were performed using an LC–MS based assay (Error bars; +/- SD; n = 3 independent assays). Conditions: 10 µM H2a(1 -20) incubated with 1 µM KDM4E, 100 µM sodium L-ascorbate, 10 µM (NH4)2Fe(SO4)2 and 100 µM 2OG.
Reactions wer e quenched after 90 min. […]

[6] = biological target: T1, KDM4E; assay: FDH-coupled demethylation assay, Michaelis–Menten kinetics; type: biochemical
Experimental: The RDM activity of KDM4E with H2a(1–20)R3me2a was compared with demethylation of H3(1–21)R2me2a using a formaldehyde dehydrogenase (FDH) assay[23],[24]. KDM4E catalysed demethylation of H2a R3me2a was less efficient than H3 R2me2a by approximately three-fold under the same conditions (kcat/KM 0.89 hr^−1 µM^−1 for H2a(1–20)R3me2a and 2.58 hr^−1 µM^−1 for H3(1–21)R2me2a).
When LC–MS-based assays were used, time course assays were carried out as described; product formation (%) was plotted against time (s) using GraphPad Prism5 version 5.04. The gradient of each reaction was calculated by fitting a line of linear regression to the first-order region. The resultant slope was used to calculate reaction rate in µM hr^−1. The rate versus peptide concentration (µM) was plotted and the KM, kcat, and Vmax values determined by fitting the Michaelis–Menten equation using GraphPad Prism5 version 5.04. […]
Supplementary Figure 3 KDM4E catalysed H2a(1–20) hydroxylation and H3(1–21)R2me2a demethylation. Michaelis–Menten plots monitoring: ( a) hydroxylation of H2a(1–20) measured using LC– MS (R2 value obtained was 0.5 indicating poor goodness of fit, likely due to limited data at low substrate concentrations due to signal:noise limitations), (b) demethylation of H2a(1–20)R3me2a, and (c) demethylation of H3(1–21)R2me2a measured using the FDH-coupled demethylation assay. […]

[7] = 60 min, 2 µM KDM4A, 10 µM peptide, MALDI–TOF MS, n = 2

Row | +16 Da mass shift (hydroxylation) [3] | RDM activity [3] | −14 Da mass shift (demethylation) [4] | RDM activity [4] | Compound | mass shift [1, 7] | RDM activity [1] | +16 Da mass shift (hydroxylation) [2] | inhibition of +16 Da product formation [5] | also measured
1 | observed | Evidence for RDM activity | observed | Evidence for RDM activity | SGR[me2s ]GKQGGKARAKAKTRSSR-NH-Ahx-K-Biotin [H2a(1–20)R3me2s (AB), biotinylated H2a(1–20) with symmetrically di-methylated Arg-3] | No mass shifts were observed | to a lesser extent | potentially |  | −14 Da mass shift (demethylation) [3]: observed
2 | observed | Evidence for RDM activity | observed | Evidence for RDM activity | SGR[me2a]GKQGGKARAKAKTRSSR-NH-Ahx-K-Biotin [H2a(1–20)R3me2a (AB), biotinylated H2a(1–20) with asymmetrically di-methylated Arg-3, AltaBioscience library] |  | to a lesser extent | potentially |  | −14 Da mass shift (demethylation) ([1]; 60 min, 2 µM KDM4A, 10 µM peptide, 37 °C, MALDI–TOF MS, n = 2): observed; −14 Da mass shift (demethylation) [2]: potentially; −14 Da mass shift (demethylation) [3]: observed
3 | observed | Evidence for RDM activity | observed | Evidence for RDM activity | SGR[me1]GKQGGKARAKAKTRSSR-NH-Ahx-K-Biotin [H2a(1–20)R3me1 (AB), biotinylated H2a(1–20) with mono-methylated Arg-3] | No mass shifts were observed | to a lesser extent | potentially |  | 

The next lines start with the compound.

Row | Compound | +16 Da mass shift (hydroxylation) [3] | RDM activity [3] | −14 Da mass shift (demethylation) [4] | RDM activity [4] | mass shift [1, 7] | RDM activity [1] | +16 Da mass shift (hydroxylation) [2] | inhibition of +16 Da product formation [5] | also measured
4 | SGR[C i]GKQGGKARAKAKTRSSR-NH-Ahx-K-Biotin [H2a(1–20)Ci3 (AB), biotinylated H2a(1–20) with citrullinated Arg-3] | observed |  |  |  | No mass shifts were observed |  |  |  | mass shift [2]: No mass shifts were observed; mass shift [4]: No mass shifts were observed
5 | O=C(O)c1ccnc(C(=O)O)c1 [2,4-PDCA, 2,4-pyridine dicarboxylic acid] |  |  |  |  |  |  |  | inhibited | 
6 | Oc1cccc2cccnc12 [IOX1, 8-hydroxyquinoline] |  |  |  |  |  |  |  | inhibited | IC50 [5]: 22.9 µM
7 | AR [ me 2a ] T KQ T AR KST GGKAPR KQ L A [H3(1–21)R2me2a, reference compound] |  |  |  |  |  |  |  |  | kcat/KM (demethylation) ([6]; FDH assay, 2 µM KDM4E, 200 µM 2OG, pH 7.5, n = 3 assay repeats): 717 M⁻¹ s⁻¹; kcat/KM relative to KDM substrate H3 K9me3 (fold less) ([6]; same FDH assay, H3 K9me3 from ref 7): 13 fold
8 | SGR GKQ GGKAR AKAKT R SSR - NH - Ahx - K- B i oti n [H2a(1–20) (AB), biotinylated H2a(1–20)] | observed |  |  |  | No mass shifts were observed |  | potentially |  | mass shift [4]: No mass shifts were observed
9 | O=C(O)CNC(=O)C(=O)O [NOG, N-oxalylglycine] |  |  |  |  |  |  |  | inhibited | 
